Values quoted from earlier work as cited in patent US20220296868A1, “INTRACRANIAL DELIVERY OF MEDICINAL SOLUTION” (InCube Labs, LLC, priority 2019, published 2022).

Key:
[1] = hydrochloride salt of topotecan
[2] = not given; remark: listed apart in the source
[3] = in vitro, human liver microsomes
[4] = test system: white blood cell count; conditions: in vivo
[5] = test system: plasma proteins

CC[C@@]1(O)C(=O)OCc2c1cc1n(c2=O)Cc2cc3c(CN(C)C)c(O)ccc3nc2-1 [topotecan]
solubility in water [1]: freely soluble | mean metabolite:parent AUC ratio (N-demethylated metabolite, total topotecan and topotecan lactone, following IV administration): about 3% | total exposure (AUC) versus dose (cancer subjects, 0.5 to 1.5 mg/m^2 as 30-minute IV infusion): approximately dose-proportional | lactone form ([2]; pH≤4): exclusively present | ring-opened hydroxy-acid form ([2]; physiologic pH): predominates | metabolism [3]: metabolized to an Ndemethylated metabolite | dose-limiting toxicity [4]: leukopenia | binding to plasma proteins [5]: about 35%
